Positions of bridges follow the written chain, without caps; N, C: chain ends. Non-standard residues stand in square brackets, D forms with d. Residues, ends and D or L forms follow the SMILES beside them. ξ: configuration not given here. Bip = N[C@@H](Cc1ccc(-c2ccccc2)cc1)C(=O)O; hhPhe = N[C@@H](CCCc1ccccc1)C(=O)O; h4Pal = N[C@@H](CCc1ccncc1)C(=O)O; 4Pal = N[C@@H](Cc1ccncc1)C(=O)O; ξIle = CC[C@H](C)C(N)C(=O)O; Orn = NCCC[C@H](N)C(=O)O; Sar = CNCC(=O)O

For the test, the target named is TNFα (Homo sapiens, UniProt P01375). Description: TNF-Induced HEK-Blue Assay. It counts as cell-based. Particulars: HEK-Blue-CD40L cells, NF-kB-driven secreted alkaline phosphatase reporter; TNFα 0.5 ng/ml; 18 h; read-out: TNF induced HEK-Blue assay IC50 value.
TNFα, sequence (P01375 77-233 limits assumed): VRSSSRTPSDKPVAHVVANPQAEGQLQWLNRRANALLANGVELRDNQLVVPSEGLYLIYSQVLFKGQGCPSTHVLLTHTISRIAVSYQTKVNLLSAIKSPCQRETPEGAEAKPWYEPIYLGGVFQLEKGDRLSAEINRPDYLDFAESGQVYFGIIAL
In general, IC50 refers to the point on the concentration scale where inhibition reaches its midpoint. For `CC(C)C[C@@H]1NC(=O)[C@H](CCCNC(=N)N)NC(=O)[C@H](C(C)C)NC(=O)[C@@H]2CCCN2C(=O)[C@H](C(C)C)NC(=O)[C@H](CCCNC(=N)N)NC(=O)[C@H](CC(=O)O)NC(=O)[C@@H]2CCCN2C(=O)CN(C)C(=O)[C@H](Cc2ccc(-c3ccccc3)cc2)NC(=O)[C@H](Cc2ccc(-c3ccccc3)cc2)NC(=O)[C@H](Cc2ccccc2)NC(=O)CSC[C@@H](C(=O)NCC(N)=O)NC1=O` [Example 1] ({CH2CO}-F[Bip][Bip][Sar]PDRVPVRLCG-NH2; thioether N-13), the IC50 is 200 to 2000 nM.

Regarding `CC(C)C[C@@H]1NC(=O)[C@H](CCCN)NC(=O)[C@H](C(C)C)NC(=O)[C@@H]2CCCN2C(=O)[C@H](C(C)C)NC(=O)[C@H](CCCNC(=N)N)NC(=O)[C@H](CC(=O)O)NC(=O)[C@@H]2CCCN2C(=O)CN(C)C(=O)[C@H](Cc2ccc(-c3ccccc3)cc2)NC(=O)[C@H](Cc2ccc(-c3ccccc3)cc2)NC(=O)[C@H](Cc2ccccc2)NC(=O)CSC[C@@H](C(=O)NCC(N)=O)NC1=O` [Example 2] ({CH2CO}-F[Bip][Bip][Sar]PDRVPV[Orn]LCG-NH2; thioether N-13), the IC50 lay in the range of 200 to 2000 nM.

Regarding `CC(C)C[C@@H]1NC(=O)[C@H](CCCCN)NC(=O)[C@H](C(C)C)NC(=O)[C@@H]2CCCN2C(=O)[C@H](C(C)C)NC(=O)[C@H](CCCNC(=N)N)NC(=O)[C@H](CC(=O)O)NC(=O)[C@@H]2CCCN2C(=O)CN(C)C(=O)[C@H](Cc2ccc(-c3ccccc3)cc2)NC(=O)[C@H](Cc2ccc(-c3ccccc3)cc2)NC(=O)[C@H](Cc2ccccc2)NC(=O)CSC[C@@H](C(=O)NCC(N)=O)NC1=O` [Example 3] ({CH2CO}-F[Bip][Bip][Sar]PDRVPVKLCG-NH2; thioether N-13), the IC50 was 200 to 2000 nM.

On to `CC(C)C[C@@H]1NC(=O)[C@H](CCCNC(=N)N)NC(=O)[C@H](C(C)C)NC(=O)[C@@H]2CCCN2C(=O)[C@H](C(C)C)NC(=O)[C@H](CCCNC(=N)N)NC(=O)[C@H](CC(=O)O)NC(=O)[C@@H]2CCCN2C(=O)CN(C)C(=O)[C@H](Cc2ccc(-c3ccccc3)cc2)NC(=O)[C@H](Cc2ccc(-c3ccccc3)cc2)NC(=O)[C@H](Cc2ccc(O)cc2)NC(=O)CSC[C@@H](C(=O)NCC(N)=O)NC1=O` [Example 4] ({CH2CO}-Y[Bip][Bip][Sar]PDRVPVRLCG-NH2; thioether N-13), for which the IC50 lay in the range of 200 to 2000 nM.

In the case of `CC(C)C[C@@H]1NC(=O)[C@H](CCCNC(=N)N)NC(=O)[C@H](C(C)C)NC(=O)[C@@H]2CCCN2C(=O)[C@H](C(C)C)NC(=O)[C@H](CCCNC(=N)N)NC(=O)[C@H](CC(=O)O)NC(=O)[C@@H]2CCCN2C(=O)CN(C)C(=O)[C@H](Cc2ccc(-c3ccccc3)cc2)NC(=O)[C@H](Cc2ccc(-c3ccccc3)cc2)NC(=O)[C@H](Cc2c[nH]c3ccccc23)NC(=O)CSC[C@@H](C(=O)NCC(N)=O)NC1=O` [Example 5] ({CH2CO}-W[Bip][Bip][Sar]PDRVPVRLCG-NH2; thioether N-13), the IC50 lay within 200 to 2000 nM.

Turning to `CC(C)C[C@@H]1NC(=O)[C@H](CCCNC(=N)N)NC(=O)[C@H](C(C)C)NC(=O)[C@@H]2CCCN2C(=O)[C@H](C(C)C)NC(=O)[C@H](CCCNC(=N)N)NC(=O)[C@H](CC(=O)O)NC(=O)[C@@H]2CCCN2C(=O)CN(C)C(=O)[C@H](Cc2ccc(-c3ccccc3)cc2)NC(=O)[C@H](Cc2ccc(-c3ccccc3)cc2)NC(=O)[C@H](CCCCN)NC(=O)CSC[C@@H](C(=O)NCC(N)=O)NC1=O` [Example 6] ({CH2CO}-K[Bip][Bip][Sar]PDRVPVRLCG-NH2; thioether N-13), the IC50 was 200 to 2000 nM.

As for `CC[C@H](C)C1NC(=O)CSC[C@@H](C(=O)NCC(N)=O)NC(=O)[C@H](CC(C)C)NC(=O)[C@H](CCCNC(=N)N)NC(=O)[C@H](C(C)C)NC(=O)[C@@H]2CCCN2C(=O)[C@H](C(C)C)NC(=O)[C@H](CCCNC(=N)N)NC(=O)[C@H](CC(=O)O)NC(=O)[C@@H]2CCCN2C(=O)CN(C)C(=O)[C@H](Cc2ccc(-c3ccccc3)cc2)NC(=O)[C@H](Cc2ccc(-c3ccccc3)cc2)NC1=O` (some centres unmarked) [Example 7] ({CH2CO}-[ξIle][Bip][Bip][Sar]PDRVPVRLCG-NH2; thioether N-13), the concentration for half-maximal inhibition (IC50) was in the range of 200 to 2000 nM.

With `CC(C)C[C@@H]1NC(=O)CSC[C@@H](C(=O)NCC(N)=O)NC(=O)[C@H](CC(C)C)NC(=O)[C@H](CCCNC(=N)N)NC(=O)[C@H](C(C)C)NC(=O)[C@@H]2CCCN2C(=O)[C@H](C(C)C)NC(=O)[C@H](CCCNC(=N)N)NC(=O)[C@H](CC(=O)O)NC(=O)[C@@H]2CCCN2C(=O)CN(C)C(=O)[C@H](Cc2ccc(-c3ccccc3)cc2)NC(=O)[C@H](Cc2ccc(-c3ccccc3)cc2)NC1=O` [Example 8] ({CH2CO}-L[Bip][Bip][Sar]PDRVPVRLCG-NH2; thioether N-13), the half-maximal inhibitory concentration (IC50) was in the range of 200 to 2000 nM.

Turning to `CC(C)C[C@@H]1NC(=O)[C@H](CCCNC(=N)N)NC(=O)[C@H](C(C)C)NC(=O)[C@@H]2CCCN2C(=O)[C@H](C(C)C)NC(=O)[C@H](CCCNC(=N)N)NC(=O)[C@H](CC(=O)O)NC(=O)[C@@H]2CCCN2C(=O)CN(C)C(=O)[C@H](Cc2ccc(-c3ccccc3)cc2)NC(=O)[C@H](Cc2ccc(-c3ccccc3)cc2)NC(=O)[C@H](C(C)C)NC(=O)CSC[C@@H](C(=O)NCC(N)=O)NC1=O` [Example 9] ({CH2CO}-V[Bip][Bip][Sar]PDRVPVRLCG-NH2; thioether N-13), the IC50 was in the range of 200 to 2000 nM.

As for `CC(C)C[C@@H]1NC(=O)[C@H](CCCNC(=N)N)NC(=O)[C@H](C(C)C)NC(=O)[C@@H]2CCCN2C(=O)[C@H](C(C)C)NC(=O)[C@H](CCCNC(=N)N)NC(=O)[C@H](CC(=O)O)NC(=O)[C@@H]2CCCN2C(=O)CN(C)C(=O)[C@H](Cc2ccc(-c3ccccc3)cc2)NC(=O)[C@H](Cc2ccc(-c3ccccc3)cc2)NC(=O)[C@H](CCc2ccncc2)NC(=O)CSC[C@@H](C(=O)NCC(N)=O)NC1=O` [Example 10] ({CH2CO}-[h4Pal][Bip][Bip][Sar]PDRVPVRLCG-NH2; thioether N-13), the IC50 was in the range of 200 to 2000 nM.

For `CC(C)C[C@@H]1NC(=O)[C@H](CCCNC(=N)N)NC(=O)[C@H](C(C)C)NC(=O)[C@@H]2CCCN2C(=O)[C@H](C(C)C)NC(=O)[C@H](CCCNC(=N)N)NC(=O)[C@H](CC(=O)O)NC(=O)[C@@H]2CCCN2C(=O)CN(C)C(=O)[C@H](Cc2ccc(-c3ccccc3)cc2)NC(=O)[C@H](Cc2ccc(-c3ccccc3)cc2)NC(=O)[C@H](Cc2ccncc2)NC(=O)CSC[C@@H](C(=O)NCC(N)=O)NC1=O` [Example 11] ({CH2CO}-[4Pal][Bip][Bip][Sar]PDRVPVRLCG-NH2; thioether N-13), the IC50 lay in the range of 200 to 2000 nM.

As for `CC(C)C[C@@H]1NC(=O)[C@H](CCCNC(=N)N)NC(=O)[C@H](C(C)C)NC(=O)[C@@H]2CCCN2C(=O)[C@H](C(C)C)NC(=O)[C@H](CCCNC(=N)N)NC(=O)[C@H](CC(=O)O)NC(=O)[C@@H]2CCCN2C(=O)CN(C)C(=O)[C@H](Cc2ccc(-c3ccccc3)cc2)NC(=O)[C@H](Cc2ccc(-c3ccccc3)cc2)NC(=O)[C@H](CCCc2ccccc2)NC(=O)CSC[C@@H](C(=O)NCC(N)=O)NC1=O` [Example 12] ({CH2CO}-[hhPhe][Bip][Bip][Sar]PDRVPVRLCG-NH2; thioether N-13), the IC50 lay in the range of 200 to 2000 nM.

Turning to `CC(C)C[C@@H]1NC(=O)[C@H](CCCNC(=N)N)NC(=O)[C@H](C(C)C)NC(=O)[C@@H]2CCCN2C(=O)[C@H](Cc2ccc(O)cc2)NC(=O)[C@H](CCCNC(=N)N)NC(=O)[C@H](CC(=O)O)NC(=O)[C@@H]2CCCN2C(=O)CN(C)C(=O)[C@H](Cc2ccc(-c3ccccc3)cc2)NC(=O)[C@H](Cc2ccc(-c3ccccc3)cc2)NC(=O)[C@H](Cc2ccccc2)NC(=O)CSC[C@@H](C(=O)NCC(N)=O)NC1=O` [Example 15] ({CH2CO}-F[Bip][Bip][Sar]PDRYPVRLCG-NH2; thioether N-13), the IC50 lay within 200 to 2000 nM.

In the case of `CC(C)C[C@@H]1NC(=O)[C@H](CCCNC(=N)N)NC(=O)[C@H](C(C)C)NC(=O)CN(C)C(=O)[C@H](C(C)C)NC(=O)[C@H](CCCNC(=N)N)NC(=O)[C@H](CC(=O)O)NC(=O)[C@@H]2CCCN2C(=O)CN(C)C(=O)[C@H](Cc2ccc(-c3ccccc3)cc2)NC(=O)[C@H](Cc2ccc(-c3ccccc3)cc2)NC(=O)[C@H](Cc2ccccc2)NC(=O)CSC[C@@H](C(=O)NCC(N)=O)NC1=O` [Example 16] ({CH2CO}-F[Bip][Bip][Sar]PDRV[Sar]VRLCG-NH2; thioether N-13), the IC50 lay within 200 to 2000 nM.

On to `CC(C)C[C@@H]1NC(=O)[C@H](CCCNC(=N)N)NC(=O)[C@H](C(C)C)NC(=O)[C@H](C(C)C)NC(=O)[C@H](C(C)C)NC(=O)[C@H](CCCNC(=N)N)NC(=O)[C@H](CC(=O)O)NC(=O)[C@@H]2CCCN2C(=O)CN(C)C(=O)[C@H](Cc2ccc(-c3ccccc3)cc2)NC(=O)[C@H](Cc2ccc(-c3ccccc3)cc2)NC(=O)[C@H](Cc2ccccc2)NC(=O)CSC[C@@H](C(=O)NCC(N)=O)NC1=O` [Example 17] ({CH2CO}-F[Bip][Bip][Sar]PDRVVVRLCG-NH2; thioether N-13), for which the IC50 was in the range of 200 to 2000 nM.

Take `CC(C)C[C@@H]1NC(=O)[C@H](CCC(N)=O)NC(=O)[C@H](C(C)C)NC(=O)[C@@H]2CCCN2C(=O)[C@H](C(C)C)NC(=O)[C@H](CCCNC(=N)N)NC(=O)[C@H](CC(=O)O)NC(=O)[C@@H]2CCCN2C(=O)CN(C)C(=O)[C@H](Cc2ccc(-c3ccccc3)cc2)NC(=O)[C@H](Cc2ccc(-c3ccccc3)cc2)NC(=O)[C@H](Cc2ccccc2)NC(=O)CSC[C@@H](C(=O)NCC(N)=O)NC1=O` [Example 18] ({CH2CO}-F[Bip][Bip][Sar]PDRVPVQLCG-NH2; thioether N-13): the IC50 lay in the range of 200 to 2000 nM.

Consider `CC[C@H](C)[C@@H]1NC(=O)[C@H](C(C)C)NC(=O)[C@@H]2CCCN2C(=O)[C@H](C(C)C)NC(=O)[C@H](CCCNC(=N)N)NC(=O)[C@H](CC(=O)O)NC(=O)[C@H](Cc2ccc(O)cc2)NC(=O)CN(C)C(=O)[C@H](Cc2ccc(-c3ccccc3)cc2)NC(=O)[C@H](Cc2ccc(-c3ccccc3)cc2)NC(=O)[C@H](Cc2ccccc2)NC(=O)CSC[C@@H](C(=O)NCC(N)=O)NC(=O)[C@H](CC(C)C)NC1=O` [Example 19] ({CH2CO}-F[Bip][Bip][Sar]YDRVPVILCG-NH2; thioether N-13), for which the IC50 lay within 200 to 2000 nM.

The values above are taken from patent US20250145665A1, “MACROCYCLIC PEPTIDES USEFUL AS MODULATORS OF TNF ALPHA” (Bristol-Myers Squibb Company, priority 2023, published 2025).
